Patent publication US20250127734A1, “ALZ-801 FOR USE IN TREATING A COVID-19 ASSOCIATED NEUROLOGICAL SYMPTOM” (Alzheon, Inc., priority 2022, published 2025)
Several values for one entry are separate records, joined by “and”; a condition that tells them apart may be missing. Identical values can stand only once.

How the values were obtained:
plasma Abeta40 = experiment: Phase 2 trial in early AD APOE4 carriers: plasma Abeta40; type: in vivo, human; details: 52 weeks; 265 mg BID oral; p=0.002
Method: (§1) Evaluation of disease modifying effects from phase 2 trial of ALZ-801 (valiltramiprosate) in subjects with early Alzheimer's disease were conducted. The study enrolled 84 patients, with early AD, who carry the APOE4/4 or APOE3/4 genotype and have an MMSE score ranging from 22 to 30 (CDR-G 0.5 or 1). Each patient received 265 mg ALZ-801 twice daily. The average MMSE score of the subjects was 26 (mean age 69 years, 52% female). Subjects were either amyloid PET positive or A+/T+ on CSF assays. CSF criteria were: Ratio of Aβ42/40×10≤0.61, and p-tau181≥61 pg/ml. CSF was evaluated at 52 weeks, and plasma biomarkers at every visit.
(§2) All fluid biomarker analyses were performed at the Neurochemistry Laboratory of Dr. Blennow (Molndal, Sweden), and were blinded to subject's demographics or genotype. CSF biomarker assays were analyzed using Lumipulse (Fujirebio) and plasma assays utilized Simoa assays. Cognitive tests include the Rey Auditory Verbal Learning Test (RAVLT: immediate, delayed and recognition memory) and Digit Symbol Substitution Tests (DSST), and a composite Z-score is calculated (3-item RAVLT+DSST). Change from baseline (CBL) analyses were performed on the mITT population and included all observed data, using paired t-tests and 2-sided p-values. The primary biomarker outcome was p-tau181. […]

plasma Abeta42 = experiment: Phase 2 trial in early AD APOE4 carriers: plasma Abeta42; type: in vivo, human; details: 52 weeks; 265 mg BID oral; p=0.005
Method: as §1, §2

[1] = Phase 2 trial in early AD APOE4 carriers: brain volumes (hippocampal, ventricular; MRI) vs matched ADNI cohort; type: in vivo, human
Method: as §1
Unlike anti-amyloid antibodies, such as Lecanemab, ALZ-801 treatment over 52 weeks also appeared to show an ˜15% reduction in ventricular volume expansion as measured by MRI (p=0.08).

plasma p-tau181 = experiment: Phase 2 trial in early AD APOE4 carriers: plasma p-tau181 (Simoa); type: in vivo, human; details: 265 mg BID oral, APOE4/4 or APOE3/4, change from baseline
Method: as §1
(§3) All fluid biomarker analyses were performed at the Neurochemistry Laboratory of Dr. Blennow (Molndal, Sweden), and were blinded to subject's demographics or genotype. CSF biomarker assays were analyzed using Lumipulse (Fujirebio) and plasma assays utilized Simoa assays. Cognitive tests include the Rey Auditory Verbal Learning Test (RAVLT: immediate, delayed and recognition memory) and Digit Symbol Substitution Tests (DSST), and a composite Z-score is calculated (3-item RAVLT+DSST). Change from baseline (CBL) analyses were performed on the mITT population and included all observed data, using paired t-tests and 2-sided p-values. The primary biomarker outcome was p-tau181.
(§4) Of the 84 APOE4 carrier that were enrolled and received ALZ-801, 80 and 75 subjects completed 26 and 52 weeks respectively. […] This is much greater than the annualized ˜12% reduction in plasma p-tauisi observed in the recent human clinical trials of the anti-amyloid antibody lecanemab (van Dyck, C H et al., N Engl J Med 2023; 388: 9-21, DOI: 10.1056/NEJMoa2212948).

[2] = test system: plasma p-tau181/Abeta42 ratio; experiment: Phase 2 trial in early AD APOE4 carriers: plasma p-tau181/Abeta42 ratio; type: in vivo, human; details: 265 mg BID oral
Method: as §1, §3, §4

[3] = cited from earlier work

Row | Molecule | reduction in plasma Abeta40 (plasma Abeta40) | reduction in plasma Abeta42 (plasma Abeta42) | annualized reduction in atrophy of hippocampal volume ([1]; compared to a well-matched ADNI cohort, p=0.05) | reduction in ventricular volume expansion ([1]; over 52 weeks, measured by MRI, p=0.08) | reduction in plasma p-tau181 (plasma p-tau181; 13 weeks, p=0.014) | reduction in plasma p-tau181 (plasma p-tau181; 26 weeks, p=0.014) | reduction in plasma p-tau181 (plasma p-tau181; 52 weeks, p=0.016) | reduction in plasma p-tau181/Abeta42 ratio ([2]; 13 weeks, p=0.011) | reduction in plasma p-tau181/Abeta42 ratio ([2]; 26 weeks, p=0.011) | reduction in plasma p-tau181/Abeta42 ratio ([2]; 52 weeks, p=0.032) | annualized reduction in hippocampal volume atrophy, result in words ([3]; Van Dyck, 2022) | annualized reduction in plasma p-tau181 ([3]; recent human clinical trials of lecanemab, van Dyck et al. N Engl J Med 2023)
1 | CC(C)[C@H](N)C(=O)NCCCS(=O)(=O)O [ALZ-801, valyl-3-amino-1-propanesulfonic acid] | 5% | 5% | ~20% | ~15% | 18% | 29% | 41% | 21% | 30% | 37% and 31% |  | 
2 | lecanemab: anti-amyloid antibody (antibody, chains of the INN, looked up, V domains shown) VH: EVQLVESGGGLVQPGGSLRLSCSASGFTFSSFGMHWVRQAPGKGLEWVAYISSGSSTIYYGDTVKGRFTISRDNAKNSLFLQMSSLRAEDTAVYYCAREGGYYYGRSYYTMDYWGQGTTVTVSS VL: DVVMTQSPLSLPVTPGAPASISCRSSQSIVHSNGNTYLEWYLQKPGQSPKLLIYKVSNRFSGVPDRFSGSGSGTDFTLRISRVEAEDVGIYYCFQGSHVPPTFGPGTKLEIK |  |  |  |  |  |  |  |  |  |  | did not demonstrate any significant annualized reduction | ~12%
